According to ChEMBL document CHEMBL5465560, “Selectivity Literature for EUbOPEN Chemogenomic Library” (2024):

Assays:
[1] = biological target: Histone-lysine N-methyltransferase KMT5C (Homo sapiens) (UniProt Q86Y97); details: at 1 µM
[2] = biological target: T1, Aurora kinase A (Homo sapiens) (UniProt O14965); assay: Selectivity interaction (Millipore kinase profiler) EUB0000124b STK6; details: at 10 µM
T1 sequence (whole entry): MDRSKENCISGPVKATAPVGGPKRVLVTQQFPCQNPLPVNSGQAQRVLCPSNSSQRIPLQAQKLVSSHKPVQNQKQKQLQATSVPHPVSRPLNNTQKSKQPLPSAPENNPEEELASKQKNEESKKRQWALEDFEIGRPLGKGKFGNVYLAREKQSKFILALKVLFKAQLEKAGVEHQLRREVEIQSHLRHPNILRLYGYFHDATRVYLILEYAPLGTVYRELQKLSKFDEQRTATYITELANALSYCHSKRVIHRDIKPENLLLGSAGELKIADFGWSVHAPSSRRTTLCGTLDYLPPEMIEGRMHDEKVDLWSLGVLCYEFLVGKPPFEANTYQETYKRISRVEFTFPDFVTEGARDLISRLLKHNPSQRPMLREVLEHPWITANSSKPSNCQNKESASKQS

[3] = biological target: T2, Tyrosine-protein kinase ZAP-70 (Homo sapiens) (UniProt P43403); assay: Selectivity interaction (Upstate Kinase Profiler service (Millipore)) EUB0000056c ZAP70; details: at 1 µM
T2 sequence (whole entry): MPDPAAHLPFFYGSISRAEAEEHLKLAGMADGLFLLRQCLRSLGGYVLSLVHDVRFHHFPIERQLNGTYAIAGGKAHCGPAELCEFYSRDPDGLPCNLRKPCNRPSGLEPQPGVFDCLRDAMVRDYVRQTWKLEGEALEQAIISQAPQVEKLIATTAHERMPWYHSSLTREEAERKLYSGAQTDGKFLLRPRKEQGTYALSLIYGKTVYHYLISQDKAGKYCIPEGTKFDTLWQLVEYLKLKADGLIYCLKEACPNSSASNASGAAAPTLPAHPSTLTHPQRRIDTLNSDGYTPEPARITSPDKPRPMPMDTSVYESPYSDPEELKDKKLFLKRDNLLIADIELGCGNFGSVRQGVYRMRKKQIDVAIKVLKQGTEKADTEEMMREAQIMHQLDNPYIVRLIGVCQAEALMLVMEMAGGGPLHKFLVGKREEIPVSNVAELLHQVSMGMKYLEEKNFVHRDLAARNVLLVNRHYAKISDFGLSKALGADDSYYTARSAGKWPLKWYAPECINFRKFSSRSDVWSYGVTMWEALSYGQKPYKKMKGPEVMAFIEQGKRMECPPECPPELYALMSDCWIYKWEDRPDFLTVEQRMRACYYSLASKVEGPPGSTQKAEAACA

[4] = biological target: Phosphatidylinositol 3-kinase catalytic subunit type 3 (Homo sapiens, UniProt Q8NEB9); assay: Selectivity interaction (Kinase panel (ADP-Glow assay)) EUB0000877a PIK3C3
Chain of Phosphatidylinositol 3-kinase catalytic subunit type 3 (Q8NEB9 whole entry): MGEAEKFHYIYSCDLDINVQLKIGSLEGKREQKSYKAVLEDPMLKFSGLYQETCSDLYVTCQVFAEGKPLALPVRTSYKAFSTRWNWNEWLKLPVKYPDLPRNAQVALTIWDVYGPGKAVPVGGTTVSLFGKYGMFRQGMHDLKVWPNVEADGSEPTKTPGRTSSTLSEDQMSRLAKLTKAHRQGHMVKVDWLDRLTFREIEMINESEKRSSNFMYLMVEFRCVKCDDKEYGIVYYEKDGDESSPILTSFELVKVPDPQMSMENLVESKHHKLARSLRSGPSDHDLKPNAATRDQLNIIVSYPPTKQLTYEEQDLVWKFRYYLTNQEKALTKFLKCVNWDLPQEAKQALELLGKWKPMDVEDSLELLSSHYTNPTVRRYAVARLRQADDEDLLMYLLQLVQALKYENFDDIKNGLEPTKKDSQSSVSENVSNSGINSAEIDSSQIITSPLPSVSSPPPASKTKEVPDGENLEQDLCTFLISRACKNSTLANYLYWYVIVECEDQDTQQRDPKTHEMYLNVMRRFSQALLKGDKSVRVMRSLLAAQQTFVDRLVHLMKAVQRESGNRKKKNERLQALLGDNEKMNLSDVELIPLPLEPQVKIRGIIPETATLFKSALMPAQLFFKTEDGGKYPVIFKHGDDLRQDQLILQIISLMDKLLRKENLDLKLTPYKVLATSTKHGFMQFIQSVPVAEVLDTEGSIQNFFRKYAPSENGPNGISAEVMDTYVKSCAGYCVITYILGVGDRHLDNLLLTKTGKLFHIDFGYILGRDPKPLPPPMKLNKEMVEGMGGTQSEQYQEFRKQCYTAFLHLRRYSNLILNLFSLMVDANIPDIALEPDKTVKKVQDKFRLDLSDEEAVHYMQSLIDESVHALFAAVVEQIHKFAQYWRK

[5] = biological target: T3, Serine/threonine-protein kinase Nek5 (Homo sapiens) (UniProt Q6P3R8); assay: Selectivity interaction (KinomeScan (DiscoverX)) EUB0000618a NEK5; details: at 10 µM
T3 sequence (whole entry): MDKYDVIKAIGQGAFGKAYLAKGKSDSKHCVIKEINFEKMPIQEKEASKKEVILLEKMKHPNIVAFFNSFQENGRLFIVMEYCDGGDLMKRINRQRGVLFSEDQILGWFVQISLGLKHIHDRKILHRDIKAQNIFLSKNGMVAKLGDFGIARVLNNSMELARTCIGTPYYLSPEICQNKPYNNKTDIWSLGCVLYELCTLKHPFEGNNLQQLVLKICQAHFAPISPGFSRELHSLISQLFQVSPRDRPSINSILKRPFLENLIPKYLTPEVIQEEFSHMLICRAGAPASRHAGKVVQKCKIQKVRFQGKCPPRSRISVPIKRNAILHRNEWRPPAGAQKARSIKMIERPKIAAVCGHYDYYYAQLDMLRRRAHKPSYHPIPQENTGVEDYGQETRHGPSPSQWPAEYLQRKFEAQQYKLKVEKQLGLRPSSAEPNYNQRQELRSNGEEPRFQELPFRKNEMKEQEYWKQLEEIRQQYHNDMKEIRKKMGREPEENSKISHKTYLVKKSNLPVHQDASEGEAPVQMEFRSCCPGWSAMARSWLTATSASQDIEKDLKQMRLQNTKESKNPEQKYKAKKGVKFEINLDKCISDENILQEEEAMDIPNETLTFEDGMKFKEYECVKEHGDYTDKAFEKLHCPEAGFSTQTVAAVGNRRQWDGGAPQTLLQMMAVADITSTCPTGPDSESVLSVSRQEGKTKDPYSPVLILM

[6] = biological target: T4, Serine/threonine-protein kinase D3 (Homo sapiens) (UniProt O94806); assay: Selectivity interaction (ActivX KiNativ screen (kinase selectivity in THP-1 cell lysates)) EUB0000639a PRKD3; assay type: subcellular; details: lysate, at 0.01 µM
T4 sequence (whole entry): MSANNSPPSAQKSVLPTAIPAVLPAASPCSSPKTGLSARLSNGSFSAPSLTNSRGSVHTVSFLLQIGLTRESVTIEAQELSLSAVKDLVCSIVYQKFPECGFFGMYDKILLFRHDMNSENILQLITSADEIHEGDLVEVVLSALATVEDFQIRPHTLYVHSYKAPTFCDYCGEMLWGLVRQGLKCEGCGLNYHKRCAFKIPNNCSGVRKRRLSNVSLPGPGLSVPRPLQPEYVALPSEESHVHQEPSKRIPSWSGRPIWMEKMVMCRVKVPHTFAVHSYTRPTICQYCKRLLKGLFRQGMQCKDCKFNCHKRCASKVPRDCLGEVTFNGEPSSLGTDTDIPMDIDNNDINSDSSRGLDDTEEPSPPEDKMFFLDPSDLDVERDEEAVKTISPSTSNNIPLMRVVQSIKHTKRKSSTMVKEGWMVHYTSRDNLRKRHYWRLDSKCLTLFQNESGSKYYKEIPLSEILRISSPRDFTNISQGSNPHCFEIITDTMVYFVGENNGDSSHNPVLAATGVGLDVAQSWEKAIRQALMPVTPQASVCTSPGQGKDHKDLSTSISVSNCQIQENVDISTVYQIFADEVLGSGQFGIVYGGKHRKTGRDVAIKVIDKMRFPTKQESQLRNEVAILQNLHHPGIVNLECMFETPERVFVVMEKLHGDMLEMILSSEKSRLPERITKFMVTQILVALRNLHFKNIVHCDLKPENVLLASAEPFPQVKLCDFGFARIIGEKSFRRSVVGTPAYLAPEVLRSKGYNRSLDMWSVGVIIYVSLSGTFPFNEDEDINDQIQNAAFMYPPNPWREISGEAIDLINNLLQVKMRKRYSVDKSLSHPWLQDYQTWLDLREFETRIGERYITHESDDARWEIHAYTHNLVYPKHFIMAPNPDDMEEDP

[7] = biological target: Calcium/calmodulin-dependent protein kinase type II subunit delta (Homo sapiens) (UniProt Q13557); details: at 10 µM
Chain of Calcium/calmodulin-dependent protein kinase type II subunit delta (Homo sapiens) (Q13557 whole entry): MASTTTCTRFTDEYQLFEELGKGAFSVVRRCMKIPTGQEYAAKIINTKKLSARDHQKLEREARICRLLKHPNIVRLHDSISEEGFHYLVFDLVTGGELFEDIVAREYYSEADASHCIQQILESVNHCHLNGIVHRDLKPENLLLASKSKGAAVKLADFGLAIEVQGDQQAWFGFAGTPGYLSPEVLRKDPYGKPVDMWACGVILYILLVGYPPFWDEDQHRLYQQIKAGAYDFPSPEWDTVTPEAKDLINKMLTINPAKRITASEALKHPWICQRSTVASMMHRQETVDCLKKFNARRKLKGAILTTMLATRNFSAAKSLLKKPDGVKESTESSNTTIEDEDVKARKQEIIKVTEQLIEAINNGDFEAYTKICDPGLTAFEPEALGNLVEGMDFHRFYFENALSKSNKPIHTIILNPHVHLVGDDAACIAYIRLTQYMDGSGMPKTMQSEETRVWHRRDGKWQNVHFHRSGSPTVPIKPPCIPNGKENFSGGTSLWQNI

[8] = biological target: MAP kinase-interacting serine/threonine-protein kinase 2 (Homo sapiens, UniProt Q9HBH9); details: at 10 µM
Chain of MAP kinase-interacting serine/threonine-protein kinase 2 (Q9HBH9 whole entry, looked up): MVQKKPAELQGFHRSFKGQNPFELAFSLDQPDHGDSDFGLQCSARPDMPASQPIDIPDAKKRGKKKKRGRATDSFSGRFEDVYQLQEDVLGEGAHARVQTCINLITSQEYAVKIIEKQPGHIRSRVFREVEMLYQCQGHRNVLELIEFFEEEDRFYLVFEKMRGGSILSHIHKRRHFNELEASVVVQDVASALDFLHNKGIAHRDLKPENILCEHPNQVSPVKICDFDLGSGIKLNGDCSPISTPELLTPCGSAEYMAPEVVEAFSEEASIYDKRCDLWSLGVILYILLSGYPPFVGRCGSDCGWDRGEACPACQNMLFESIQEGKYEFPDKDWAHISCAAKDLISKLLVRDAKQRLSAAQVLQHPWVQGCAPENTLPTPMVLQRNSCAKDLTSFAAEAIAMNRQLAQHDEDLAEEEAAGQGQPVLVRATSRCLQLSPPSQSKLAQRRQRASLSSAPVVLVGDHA

Chain of Histone-lysine N-methyltransferase KMT5C (Homo sapiens) (Q86Y97 whole entry, looked up): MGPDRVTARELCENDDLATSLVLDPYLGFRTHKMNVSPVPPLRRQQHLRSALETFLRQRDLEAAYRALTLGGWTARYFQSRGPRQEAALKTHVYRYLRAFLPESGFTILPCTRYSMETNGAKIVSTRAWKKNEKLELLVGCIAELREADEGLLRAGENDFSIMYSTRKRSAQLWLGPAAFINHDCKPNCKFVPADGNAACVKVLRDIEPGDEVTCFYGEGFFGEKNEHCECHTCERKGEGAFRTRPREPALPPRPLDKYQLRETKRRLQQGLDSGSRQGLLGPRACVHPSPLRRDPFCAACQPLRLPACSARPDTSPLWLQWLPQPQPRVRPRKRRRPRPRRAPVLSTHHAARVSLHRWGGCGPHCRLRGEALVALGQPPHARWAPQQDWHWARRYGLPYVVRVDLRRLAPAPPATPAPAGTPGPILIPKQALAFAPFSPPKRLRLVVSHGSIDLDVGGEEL

Q: For `CNCCN1CCC(c2cc(CN(C)C(=O)c3cccc(Oc4ccccc4)c3)ccn2)CC1`, which % activity [1] is on record?
A: Its % activity is > 90%.

Q: For `CC(=O)Nc1cccc(-n2c(=O)n(C3CC3)c(=O)c3c(Nc4ccc(I)cc4F)n(C)c(=O)c(C)c32)c1`, which % of control [2] is on record?
A: Its % of control is 124%.

Q: How did the % of inhibition [3] turn out when `Cc1ccc(-c2ccc3c(ccc4sc5c(c43)NC[C@@H](C)NC5=O)n2)cn1` was run?
A: Its % of inhibition is -8%.

Q: Which IC50 [4] does the source give for `CCC(=O)N1CC[C@H](Nc2ncnc3c2CN(c2cnc(OC)c(C(F)(F)F)c2)CC3)C1` [LENIOLISIB] here?
A: Its IC50 is > 9.1 µM.

Q: How did the % of control [5] turn out when `O[C@H]1CC[C@H](Nc2ncc3nc(Nc4c(F)cc(F)cc4F)n([C@H]4CCOC4)c3n2)CC1` was run?
A: The % of control was 100%.

Q: How did the % of inhibition [6] turn out when `CC[C@@H]1[C@H](F)C(=O)N[C@@H]1COc1nccc2cc(C(N)=O)c(OC)cc12` [ZIMLOVISERTIB] was run?
A: Its % of inhibition is 0%.

Q: `CCN(CC)CCCCNc1ncc2cc(-c3cc(OC)cc(OC)c3)c(NC(=O)NC(C)(C)C)nc2n1` was tested. Which % of control [7] did it give?
A: Its % of control is 100%.

Q: And the % of control [8]?
A: Its % of control is 100%.
